Here are results for four molecules from article PMC3592791, “Fluorescence-Based High-Throughput Functional Profiling of Ligand-Gated Ion Channels at the Level of Single Cells” (PLoS ONE, 2013).

By EC50 is commonly meant the concentration giving half of the maximal effect.

Assay [1] has as its target T1, α3β GlyR (Homo sapiens, UniProt O75311+P48167). As to conditions: read-out: Median half-maximal activation by glycine (EC50), control conditions; no drug, Fig. 4F, n = 122.
Protocol: plated into 60-mm culture dishes and were transfected when approx. 80% confluent. YFP and GlyR chloride channel subunits were transfected in 1∶1 (YFP and α1-3 GlyR homomers) or 2∶1∶1 ratio (YFP, GlyR α1-3 homo and α1-3β GlyR heteromers) with a total cDNA quantity of 1 µg. Cells were transfected using calcium phosphate precipitation transfection technique, as described in Sambrook et al. [37]. Transfection efficiency varies from 20 to 60%. We routinely achieve a correlation of 80 to 90% between cells expressing YFP and cells expressing GlyRs. […]
Following termination of transfection, cells were trypsinized by adding 0.7 mL of 0.25% trypsin–EDTA solution (Gibco BRL), resuspended into DMEM, and 2.5×10^3 cells, suspended in 40 µL DMEM, were plated into each well of a transparent 384-well plate for fluorescence imaging experiments. […]
(§9) Images of fluorescent cells were segmented and quantitatively analyzed using a modified version of DetecTIFF® software [40]. In brief, images were segmented using an iterative size and intensity-based thresholding algorithm and the fluorescence signal of identified cells was calculated as the mean of all pixel values within the area of a cell.
• Goodness of fit (R^2, ≥0.9), to include curve fits that represent the data points to a high degree. • Dynamic range of fluorescence change (ΔF, 20–100%), to include cells co-expressing both, YFPI152L and GlyRs. […]
The target of assay [2] is T2, α2 GlyR (Homo sapiens, UniProt P23416).
T2 construct: expressed in transfected cells; host or cells: HEK293
T2 sequence (P23416 28-452): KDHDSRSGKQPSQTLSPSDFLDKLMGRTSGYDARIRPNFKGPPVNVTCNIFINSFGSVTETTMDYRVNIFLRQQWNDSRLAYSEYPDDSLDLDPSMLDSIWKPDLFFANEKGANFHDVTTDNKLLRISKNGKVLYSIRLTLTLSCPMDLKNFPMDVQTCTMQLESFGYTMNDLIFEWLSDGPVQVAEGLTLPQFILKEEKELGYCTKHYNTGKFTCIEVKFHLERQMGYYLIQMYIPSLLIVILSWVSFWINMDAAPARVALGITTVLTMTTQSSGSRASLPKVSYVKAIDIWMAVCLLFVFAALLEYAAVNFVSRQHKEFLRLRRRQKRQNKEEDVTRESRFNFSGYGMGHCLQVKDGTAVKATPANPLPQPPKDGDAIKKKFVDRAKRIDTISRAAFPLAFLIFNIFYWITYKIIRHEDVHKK
It counts as cell-based. Here is the method:
(§1) plated into 60-mm culture dishes and were transfected when approx. 80% confluent. YFP and GlyR chloride channel subunits were transfected in 1∶1 (YFP and α1-3 GlyR homomers) or 2∶1∶1 ratio (YFP, GlyR α1-3 homo and α1-3β GlyR heteromers) with a total cDNA quantity of 1 µg. Cells were transfected using calcium phosphate precipitation transfection technique, as described in Sambrook et al.. […] We have published a detailed comparison of five transient transfection methods employed routinely in the laboratory for this purpose.
(§2) The human α1, α2 and α3 GlyR plasmid DNAs were subcloned into the pcDNA3.1 plasmid vector and the human β subunit plasmid DNA was subcloned into pIRES2-EGFP plasmid vector. The UniprotKB accession numbers for the DNAs are as follows (with gene name in brackets): α1 (GLRA1): P23415, α2 (GLRA2): P23416, α3 (GLRA3): O75311 and β(GLRB): P48167.
(§3) Following termination of transfection, cells were trypsinized by adding 0.7 mL of 0.25% trypsin–EDTA solution (Gibco BRL), resuspended into DMEM, and 2.5×10^3 cells, suspended in 40 µL DMEM, were plated into each well of a transparent 384-well plate for fluorescence imaging experiments. Cells were used in experiments 24 h later. Individual wells typically contained 5×10^3 cells at the time of the experiment. Approximately 1 h prior to commencement of experiments culture media in 384-well plates were removed by turning the plate upside-down onto a stack of tissue and were left for approximately 30 sec until culture media was entirely removed from the wells. The culture media was replaced by 20 µL standard control solution, which contained (in mM) NaCl 140, KCl 5, CaCl2 2, MgCl2 1, HEPES 10, and glucose 10 (pH 7.4) using NaOH. […] For drug screening experiments agonist solutions were supplemented with strychnine (10, 30, 100 µM), picrotoxin (10, 100 µM) and lindane (10, 100 µM) respectively. Drugs were diluted from stocks in agonist solution according to desired final concentrations. […] Experiments were conducted at room temperature (19–22°C).
(§4) The maximum image acquisition rate was 1.25 Hz. Solutions containing agonist and drug were pipetted into a 384-well plate and placed onto LC PAL sample holder platform. Liquid handling was performed with the autosampler described above. Solutions were applied to cells at a rate of 0.6 ml/min.
(§5) Images of fluorescent cells were segmented and quantitatively analyzed using a modified version of DetecTIFF® software. In brief, images were segmented using an iterative size and intensity-based thresholding algorithm and the fluorescence signal of identified cells was calculated as the mean of all pixel values within the area of a cell.
(§6) This VI uses the Levenberg-Marquardt algorithm to determine the set of parameters that best fit the set of input data points (X, Y) as expressed by the nonlinear function: [drawing 1] where a is the set of parameters. The curve model is defined by the following equation: […]

Another assay deals with T3, α1 GlyR (Homo sapiens, UniProt P23415).
T3 construct: expressed in transfected cells; host or cells: HEK293
T3 sequence (P23415 29-457): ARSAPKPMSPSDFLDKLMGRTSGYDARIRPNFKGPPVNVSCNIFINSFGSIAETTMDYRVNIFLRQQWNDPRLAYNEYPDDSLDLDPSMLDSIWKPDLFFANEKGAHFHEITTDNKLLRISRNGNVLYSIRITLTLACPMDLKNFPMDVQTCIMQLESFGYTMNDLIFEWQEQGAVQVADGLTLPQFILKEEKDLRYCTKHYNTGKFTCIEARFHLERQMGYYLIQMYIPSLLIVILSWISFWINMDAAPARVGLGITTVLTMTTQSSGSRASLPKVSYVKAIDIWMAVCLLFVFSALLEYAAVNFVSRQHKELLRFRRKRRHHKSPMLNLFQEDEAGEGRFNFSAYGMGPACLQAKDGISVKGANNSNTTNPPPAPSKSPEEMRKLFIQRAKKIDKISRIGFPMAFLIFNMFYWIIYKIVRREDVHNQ
It counts as cell-based. On the procedure:
as §1, §2, §3, §4, §5, §6

In assay [3] the target is T4, α3 GlyR (Homo sapiens, UniProt O75311).
T4 sequence (O75311 34-464): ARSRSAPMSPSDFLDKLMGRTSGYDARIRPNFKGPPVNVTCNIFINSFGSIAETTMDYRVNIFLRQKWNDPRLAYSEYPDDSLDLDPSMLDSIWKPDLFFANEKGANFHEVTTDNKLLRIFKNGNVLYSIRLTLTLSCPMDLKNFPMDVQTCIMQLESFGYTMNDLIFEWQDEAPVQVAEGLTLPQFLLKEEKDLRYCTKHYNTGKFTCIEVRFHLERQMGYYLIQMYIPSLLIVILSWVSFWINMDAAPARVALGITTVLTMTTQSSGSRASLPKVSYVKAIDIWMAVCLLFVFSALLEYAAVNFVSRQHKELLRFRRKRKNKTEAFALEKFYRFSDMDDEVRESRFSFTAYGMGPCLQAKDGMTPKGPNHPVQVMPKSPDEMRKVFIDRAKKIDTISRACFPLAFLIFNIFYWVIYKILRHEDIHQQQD
Particulars: Fig. 3A.
Protocol: plated into 60-mm culture dishes and were transfected when approx. 80% confluent. YFP and GlyR chloride channel subunits were transfected in 1∶1 (YFP and α1-3 GlyR homomers) or 2∶1∶1 ratio (YFP, GlyR α1-3 homo and α1-3β GlyR heteromers) with a total cDNA quantity of 1 µg. Cells were transfected using calcium phosphate precipitation transfection technique, as described in Sambrook et al. [37]. Transfection efficiency varies from 20 to 60%. We routinely achieve a correlation of 80 to 90% between cells expressing YFP and cells expressing GlyRs.
Following termination of transfection, cells were trypsinized by adding 0.7 mL of 0.25% trypsin–EDTA solution (Gibco BRL), resuspended into DMEM, and 2.5×10^3 cells, suspended in 40 µL DMEM, were plated into each well of a transparent 384-well plate for fluorescence imaging experiments. Cells were used in experiments 24 h later. Individual wells typically contained 5×10^3 cells at the time of the experiment. Approximately 1 h prior to commencement of experiments culture media in 384-well plates were removed by turning the plate upside-down onto a stack of tissue and were left for approximately 30 sec until culture media was entirely removed from the wells. […]
as §9
• Goodness of fit (R^2, ≥0.9), to include curve fits that represent the data points to a high degree. • Dynamic range of fluorescence change (ΔF, 20–100%), to include cells co-expressing both, YFPI152L and GlyRs.
Filter ranges for enrichment of functional data were determined empirically by biological relevance.

Assay [4] has as its target T5, α2β GlyR (Homo sapiens, UniProt P23416+P48167).
T5 construct: expressed in transfected cells; host or cells: HEK293
It counts as cell-based. Particulars: drugs at 10 and 100 µM, Fig. 6A. Here is the method:
as §1, §2, §3, §4, §5, §6

The target in assay [5] is T2, α2 GlyR. Briefly: Whole-cell patch-clamp electrophysiology, α2 GlyR. It counts as cell-based. As to conditions: read-out: % block of EC50 glycine current; 100 µM lindane, HEK293 cells, -40 mV, 4–7 cells, Fig. 5B. On the procedure: (§7) Cells were transfected as described above and plated onto glass coverslips in 3 cm culture dishes. Coverslips containing cells were placed in a recording chamber on the stage of an inverted fluorescent microscope and currents were recorded using the whole-cell patch-clamp configuration. Cells were perfused by extracellular solution containing (in mM): 140 NaCl, 5 KCl, 2 CaCl2, 1 MgCl2, 10 HEPES/NaOH and 10 glucose (pH 7.4 adjusted with NaOH). Patch pipettes were fabricated from borosilicate hematocrit tubing (Hirschmann Laborgeraete, Eberstadt, Germany) and heat polished. […] After establishment of the whole-cell recording configuration, cells were voltage clamped at −40 mV and membrane currents were recorded using an Axopatch 1D and pClamp 10 software (Molecular Devices). Currents were filtered at 500 Hz and digitized at 2 KHz.
(§8) Because αsubunits can form functional receptors with or without β subunits, it was necessary to confirm that the expressed receptors incorporated β subunits. As the GlyR β subunit cDNA was cloned into the pIRES2-EGFP plasmid vector, we used green fluorescent protein fluorescence to identify cells transfected with the GlyR β subunit. The successful incorporation of β subunits into functional heteromeric GlyRs was also confirmed pharmacologically by their characteristic reduction in […] sensitivity as described below.

For assay [6], the target named is T1, α3β GlyR. Briefly: Whole-cell patch-clamp electrophysiology, α3β GlyR. It counts as cell-based. Also noted: expressed in transfected cells; host or cells: HEK293. Particulars: read-out: % block of EC50 glycine current; 100 µM lindane, HEK293 cells, -40 mV, 4–7 cells, Fig. 5B. Here is the method:
as §7, §8
(Patch clamp records ionic current or voltage across a cell membrane.)

Assay [7] deals with T5, α2β GlyR. Briefly: Whole-cell patch-clamp electrophysiology, α2β GlyR. It counts as cell-based. As to conditions: read-out: % block of EC50 glycine current; 100 µM lindane, HEK293 cells, -40 mV, 4–7 cells, Fig. 5B. On the procedure:
as §7, §8

Assay [8] deals with T4, α3 GlyR. The assay is described as follows: Whole-cell patch-clamp electrophysiology, α3 GlyR. It counts as cell-based. Also noted: expressed in transfected cells; host or cells: HEK293. As to conditions: read-out: % block of EC50 glycine current; 100 µM lindane, HEK293 cells, -40 mV, 4–7 cells, Fig. 5B. Here is the method:
as §7, §8

T5 sequence (P48167 23-497, one chain of several): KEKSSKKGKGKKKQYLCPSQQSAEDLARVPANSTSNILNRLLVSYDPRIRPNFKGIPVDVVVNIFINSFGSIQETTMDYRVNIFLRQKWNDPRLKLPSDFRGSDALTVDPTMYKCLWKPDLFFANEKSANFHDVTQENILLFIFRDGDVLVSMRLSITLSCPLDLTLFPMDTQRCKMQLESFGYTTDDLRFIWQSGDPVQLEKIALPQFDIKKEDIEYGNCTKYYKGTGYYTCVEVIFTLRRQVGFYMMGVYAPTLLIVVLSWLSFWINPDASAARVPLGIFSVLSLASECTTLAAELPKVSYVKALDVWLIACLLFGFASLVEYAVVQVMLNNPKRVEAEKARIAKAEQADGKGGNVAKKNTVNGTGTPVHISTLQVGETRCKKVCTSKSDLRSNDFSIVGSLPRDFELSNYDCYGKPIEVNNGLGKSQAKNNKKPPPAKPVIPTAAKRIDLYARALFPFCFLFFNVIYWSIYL
T1 sequence (P48167 23-497, one chain of several): as above

Turning to `NCC(=O)O` [glycine], the EC50 at α3β GlyR [1] came to 46.8 ± 4 µM; at α3 GlyR [3] (read-out: Averaged glycine EC50, HEK293 cells, individual well, n = 212 cells) it was 186 ± 17 µM. Moreover, the results for the “Slope value, averaged” value on α2 GlyR [2], at α1 GlyR and at α3 GlyR [3] (glycine dose-response) were 2.92±0.09, 1.19±0.03 and 0.91±0.03, respectively. Moreover, the “Slope values, range over single cells” value on α2 GlyR [2] is on record as 0.51–4.73; on α1 GlyR, 0.47–1.92; on α3 GlyR [3] (glycine dose-response), 0.39–3.43.
For `O=C1C[C@@H]2OCC=C3CN4CC[C@]56c7ccccc7N1[C@H]5[C@H]2[C@H]3C[C@H]46` [strychnine], at α2β GlyR [4], the “Effect on receptor (color map of median glycine EC50)” value (from here on “Effect on receptor”) is recorded as “inhibition”.
For the molecule picrotoxin, the “Effect on receptor” value on α2β GlyR [4] was “no inhibition”; at α2 GlyR [2] (drugs at 10 and 100 µM, Fig. 6A), “overall less block of homomeric α2 GlyRs by picrotoxin compared to lindane”.
On to `Cl[C@H]1[C@H](Cl)[C@@H](Cl)[C@@H](Cl)[C@H](Cl)[C@H]1Cl` [lindane, γ-hexachlorocyclohexane], for which the inhibition at 100 µM was found to be 94 ± 5% at α2 GlyR [5], 14 ± 3% on α3β GlyR [6], 23 ± 4% at α2β GlyR [7] and 96 ± 4% at α3 GlyR [8]. For the same molecule, the “Effect on receptor” value at α2β GlyR [4] is given as “no inhibition”.
